The PolyMetriX glass transition set

Row | SMILES | glass transition temperature [°C]
1 | *=NP(=NP(=NC(=*)Oc1ccc(C(=O)OC)cc1)(Oc1ccc(C(=O)OC)cc1)Oc1ccc(C(=O)OC)cc1)(Oc1ccc(C(=O)OC)cc1)Oc1ccc(C(=O)OC)cc1 (repeat unit) | 52.00
2 | *=NP(=NP(=NC(=*)Oc1ccc(C(C)(C)C)cc1)(Oc1ccc(C(C)(C)C)cc1)Oc1ccc(C(C)(C)C)cc1)(Oc1ccc(C(C)(C)C)cc1)Oc1ccc(C(C)(C)C)cc1 (repeat unit) | 74.00
3 | *=NP(=NP(=NC(=*)Oc1ccc(C(C)(C)c2ccccc2)cc1)(Oc1ccc(C(C)(C)c2ccccc2)cc1)Oc1ccc(C(C)(C)c2ccccc2)cc1)(Oc1ccc(C(C)(C)c2ccccc2)cc1)Oc1ccc(C(C)(C)c2ccccc2)cc1 (repeat unit) | 55.00
4 | *=NP(=NP(=NC(=*)Oc1ccccc1)(Oc1ccccc1)Oc1ccccc1)(Oc1ccccc1)Oc1ccccc1 (repeat unit) | 18.00
5 | *CC(*)(C)C(=O)NC(=O)OC(C)COc1c(Br)cc(S(=O)(=O)c2cc(Br)c(OCC(C)O)c(Br)c2)cc1Br (repeat unit) | 45.00
6 | *CC(*)(C)C(=O)NC(=O)OCCOc1c(Br)cc(S(=O)(=O)c2cc(Br)c(OCCO)c(Br)c2)cc1Br (repeat unit) | 110.00
7 | *CC(*)(C)C(=O)NC(=O)OCCOc1ccc(S(=O)(=O)c2ccc(OCCO)cc2)cc1 (repeat unit) | 131.00
8 | *CC(*)(C)C(=O)NC(=O)Oc1c(Br)cc(S(=O)(=O)c2cc(Br)c(O)c(Br)c2)cc1Br (repeat unit) | 116.00
9 | *CC(*)(C)C(=O)Nc1ccc(C(=O)/C=C/c2ccc(OC)cc2)cc1 (repeat unit) | 35.00
10 | *CC(*)(C)C(=O)OC(COc1cccc2ccccc12)COc1cccc2ccccc12 (repeat unit) | 80.00
11 | *CC(*)(C)C(=O)OC(F)(F)C(F)(F)C(F)(F)C(F)(F)C(F)(F)C(F)(F)C(F)(F)C(F)(F)F (repeat unit) | 49.00
12 | *CC(*)(C)C(=O)OC1(C)C2CC3CC(C2)CC1C3 (repeat unit) | 165.00
13 | *CC(*)(C)C(=O)OC1(C)CCOC(=O)C1 (repeat unit) | 110.00
14 | *CC(*)(C)C(=O)OC1CC(C)CCC1C(C)C (repeat unit) | 147.00
15 | *CC(*)(C)C(=O)OC1CC2CC1C1C3CCC(C3)C21 (repeat unit) | 199.00
16 | *CC(*)(C)C(=O)OC1CCC(C)CC1 (repeat unit) | 109.00
17 | *CC(*)(C)C(=O)OC1CCC1 (repeat unit) | 119.00
18 | *CC(*)(C)C(=O)OC1CCCC1 (repeat unit) | 75.00
19 | *CC(*)(C)C(=O)OC1CCCCC1C (repeat unit) | 85.00
20 | *CC(*)(C)C(=O)OC1COC(CP(=O)(OCC)OCC)OC1 (repeat unit) | 101.50
21 | *CC(*)(C)C(=O)OCC#CO[Si](C)(C)C (repeat unit) | 57.00
22 | *CC(*)(C)C(=O)OCC#N (repeat unit) | 91.00
23 | *CC(*)(C)C(=O)OCC(=O)N1CCCC1 (repeat unit) | 144.00
24 | *CC(*)(C)C(=O)OCC(=O)c1ccccc1 (repeat unit) | 92.50
25 | *CC(*)(C)C(=O)OCC(F)(F)C(F)(F)C(F)(F)C(F)(F)C(F)(F)C(F)F (repeat unit) | 12.50
26 | *CC(*)(C)C(=O)OCC(F)(F)C(F)(F)C(F)(F)C(F)F (repeat unit) | 47.00
27 | *CC(*)(C)C(=O)OCC(F)(F)C(F)(F)F (repeat unit) | 77.00
28 | *CC(*)(C)C(=O)OCC(O)C1CC(C)(c2ccccc2)C1 (repeat unit) | 105.00
29 | *CC(*)(C)C(=O)OCC(O)CO (repeat unit) | 84.40
30 | *CC(*)(C)C(=O)OCC1(C)COC(C)(C)OC1 (repeat unit) | 108.00
